# Results published in patent publication US4316010A, “Cis-C3 "C4 "-carbonate derivatives of O-demethyloleandomycin and intermediates therefor” (Pfizer Inc., priority 1981, dated 1982).
# Tests used:
# Strep. faec. 6 = experiment: MIC, serial dilution on BHI agar (inocula replicating device); type: cell-based; conditions: 18 hrs. at 37° C., read-out: Minimum Inhibitory Concentration (MIC)
# Procedure: (§1) The procedure which is followed is the one recommended by the International Collaborative Study on Antibiotic Sensitivity Testing [Ericcson and Sherris, Acta. Pathologica et Microbiologia Scandinav, Supp. 217, Sections A and B: 64-68 (1971)], and employs brain heart infusion (BHI) agar and the inocula replicating device. Overnight growth tubes are diluted 100 fold for use as the standard inoculum (20,000-10,000 cells in approximately 0.002 ml. are placed on the agar surface; 20 ml. of BHI agar/dish). Twelve 2 fold dilutions of the test compound are employed, with initial concentration of the test drug being 200 mcg./ml. Single colonies are disregarded when reading plates after 18 hrs. at 37° C. The susceptibility (MIC) of the test organism is accepted as the lowest concentration of compound capable of producing complete inhibition of growth as judged by the naked eye. A comparison of the activity of 3"-epioleandomycin-Y 3",4"-carbonate and 4"-epioleandomycin-Y 3",4"-carbonate with that of parent oleandomycin-Y is recorded in the Table.
# Strep. pyog. 203 = experiment: as above; type: cell-based; conditions: 18 hrs. at 37° C., read-out: Minimum Inhibitory Concentration (MIC)
# Procedure: as §1
# Bac. sub. 1 = experiment: as above; type: cell-based; conditions: 18 hrs. at 37° C., read-out: Minimum Inhibitory Concentration (MIC)
# Procedure: as §1
# Staph. aur. 400 = experiment: as above; type: cell-based; conditions: 18 hrs. at 37° C., read-out: Minimum Inhibitory Concentration (MIC)
# Procedure: as §1
# Staph. aur. 5 = experiment: as above; type: cell-based; conditions: 18 hrs. at 37° C., read-out: Minimum Inhibitory Concentration (MIC)
# Procedure: as §1
# Staph. aur. 52 = experiment: as above; type: cell-based; conditions: 18 hrs. at 37° C., read-out: Minimum Inhibitory Concentration (MIC)
# Procedure: as §1
# Strep. pneum. 2 = experiment: as above; type: cell-based; conditions: 18 hrs. at 37° C., read-out: Minimum Inhibitory Concentration (MIC)
# Procedure: as §1
# Staph. epi. 111 = experiment: as above; type: cell-based; conditions: 18 hrs. at 37° C., read-out: Minimum Inhibitory Concentration (MIC)
# Procedure: as §1
# bacteria = conditions: background statement on the byproduct; cited from earlier work
# Past. mult. = experiment: MIC, serial dilution on BHI agar (inocula replicating device); type: cell-based; conditions: 18 hrs. at 37° C., read-out: Minimum Inhibitory Concentration (MIC)
# Procedure: as §1
Compound,MIC (Strep. faec. 6) [µg/mL],MIC (Strep. pyog. 203) [µg/mL],MIC (Bac. sub. 1) [µg/mL],MIC (Staph. aur. 400) [µg/mL],MIC (Staph. aur. 5) [µg/mL],MIC (Staph. aur. 52) [µg/mL],MIC (Strep. pneum. 2) [µg/mL],MIC (Staph. epi. 111) [µg/mL],antibacterial activity (in words) (bacteria),MIC (Past. mult.) [µg/mL]
"C[C@@H]1[C@@H](O[C@@H]2O[C@H](C)C[C@H](N(C)C)[C@H]2O)[C@@H](C)C[C@@]2(CO2)C(=O)[C@H](C)[C@@H](O)[C@@H](C)[C@@H](C)OC(=O)[C@H](C)[C@H]1O[C@H]1C[C@@H]2OC(=O)O[C@@H]2[C@H](C)O1 [IIb, 4""-epioleandomycin-Y 3"",4""-carbonate]",12.5,3.12,3.12,12.5,12.5,12.5,0.78,6.25,,
"C[C@@H]1[C@@H](O[C@@H]2O[C@H](C)C[C@H](N(C)C)[C@H]2O)[C@@H](C)C[C@@]2(CO2)C(=O)[C@H](C)[C@@H](O)[C@@H](C)[C@@H](C)OC(=O)[C@H](C)[C@H]1O[C@H]1C[C@H](O)[C@@H](O)[C@H](C)O1 [I, O-demethyloleandomycin]",6.25,1.56,6.25,12.5,50,50,0.78,6.25,relatively low antibacterial activity,
"C[C@@H]1[C@@H](O[C@@H]2O[C@H](C)C[C@H](N(C)C)[C@H]2O)[C@@H](C)C[C@@]2(CO2)C(=O)[C@H](C)[C@@H](O)[C@@H](C)[C@@H](C)OC(=O)[C@H](C)[C@H]1O[C@H]1C[C@H]2OC(=O)O[C@H]2[C@H](C)O1 [IIa, 3""-epioleandomycin-Y 3"",4""-carbonate]",3.12,3.12,0.78,6.25,3.12,3.12,0.39,1.56,,50
